Experimental findings from ChEMBL document CHEMBL1268821, “Inhibitors of the tyrosine kinase EphB4. Part 3: identification of non-benzodioxole-based kinase inhibitors” (Bioorg Med Chem Lett, 2010) are described below.

Data set [1] can be described thus: AUC (0 to 24 hrs) in nude mouse at 100 mg/kg, po. The format is ADME, organism-based. Details: time < 24 hr, dose 100 mg/kg, route oral. Conditions: plasma.
Data set [2] in a line: Plasma concentration in nude mouse at 100 mg/kg, po measured at 4 hrs. Format: ADME, organism-based. Also noted: dose 100 mg/kg, route oral.
The nature of data set [3]: Plasma concentration in nude mouse at 100 mg/kg, po measured at 1 hr. The format is ADME, organism-based. Details: dose 100 mg/kg, route oral.
The subject of the next data set is Rattus norvegicus. The data set can be described thus: Hepatic blood flow in Han Wistar rat at […], iv and 5 mg/kg, po. The format is ADME, organism-based, Liver. Conditions: in vivo.
A short description of data set [4]: Bioavailability in Han Wistar rat at […], iv and 5 mg/kg, po. Format: ADME, organism-based. The following applies: in vivo.
A short description of data set [5]: Volume of distribution at steady state in Han Wistar rat at […], iv and 5 mg/kg, po. The format is ADME, organism-based. The following applies: in vivo, read-out: Vdss.
Data set [6] is described as follows: Plasma concentration in nude mouse at 100 mg/kg, po measured at 24 hrs. Also noted: dose 100 mg/kg, route oral. The format is ADME, organism-based.

Compound `CN(c1ccnc(Nc2cc(N3CCOCC3)cc(N3CCOCC3)c2)n1)c1cccc2[nH]ncc12` gave an AUC(0-t) at 24 h in data set [1] of 48.7 µM·h. The compound also returned a concentration at 4 h in data set [2] of 1900 nM. The compound also gave a concentration at 1 h in data set [3] of 11000 nM. For the same compound, in the data set with Rattus norvegicus, the QH was determined as 19%. In data set [4], this compound showed a bioavailability of 65%. For the same compound, the Vd in data set [5] was determined as 0.8 L/kg. For the same compound, the concentration at 24 h in data set [6] amounted to 1800 nM.

A word on the AUC(0-t): it is the area under the concentration-time curve up to a stated or last time point. The term bioavailability denotes dose-corrected exposure relative to a reference, in per cent.
